Measurements from patent US12318381B2, “Treatment for non-alcoholic fatty liver disease” (1GLOBE BIOMEDICAL CO., LTD., priority 2018, dated 2025).
Entries after “also recorded” stand apart in the source; their conditions may differ.

Experiments:
[1] = system: human HepG2 liver cells; assay: Intracellular triglyceride content in palmitoleic acid-treated HepG2 cells (biochemical kit); assay type: cell-based; settings: HepG2, 1.6 mM palmitoleic acid in EMEM, 48 hours, 0.1 μM compound vs DMSO (FIG. 1A)
Experimental: A series of in vitro experiments were first carried out with various human hepatocyte cultures. For example, human HepG2 liver cells were incubated with 1.6 mM palmitoleic acid in EMEM medium for 48 hours in the presence of 0.1 μM Compound 13-3 or control vehicle, DMSO. After 48 hours, cells were collected and the intracellular triglyceride content was measured by a biochemical kit (Biovision, Mountain View, Calif.) as described in Derdak et al. J Hepatol. 2013; 58(4):785-91.

[2] = system: HFD-fed mice; assay: High-fat diet (HFD)-induced obesity/NAFLD mouse model: body weight, food/water intake, liver size and weight; assay type: in vivo
Text: (§1) In order to assess the in vivo efficacy of Compound 13-3 in improving obesity, and ameliorating NAFLD/NASH, a previously used modified high-fat diet (HFD) was employed to induce obesity and severe fatty liver disease in mice (Derdak et al. Journal of Hepatology 2013; 58(4):785-91).
(§2) Five-week-old male, C57Bl/6J mice (12-18 per group, Jackson Laboratory, Bar Harbor, Me.) were fed ad libitum with a modified high fat or control diet (Bioserv, Frenchtown, N.J.) for 15 weeks. […] We had verified the efficacy of this diet to induce obesity and NAFLD in various pilot studies. At the end of the 15-week long feeding regimen, this diet caused substantial ALT elevation—indicative of liver injury—in these mice.
(§3) After 15 weeks on the modified HFD, the mice were put on a Compound 13-3 (or control vehicle) dosing regimen, in which the introductory 5 mg/kg (p.o., t.i.w. for the first 3 weeks) dose was followed by the administration of 10 mg/kg (p.o., t.i.w. for additional 5 weeks) therapeutic dose. During the course of the drug treatment, the animals were monitored daily for changes in body weight, food/water intake, and adverse effects.

[3] = system: HFD-fed mice; assay: HFD-induced NAFLD mouse model: liver histology (H&E, Masson's trichrome, PAS) and NAFLD Activity Score; assay type: in vivo
Text: as §1, §2, §3
The pronounced efficacy of Compound 13-3 in improving NAFLD was further supported by microscopical analysis of the harvested liver samples (FIG. 4).
Microscopic evaluation of hematoxylin-eosin (H&E) stained liver slides was performed by an expert pathologist to determine the effect of the drug treatment on the NAFLD Activity Score (NAS), as a primary read-out for the anti-NAFLD efficacy of Compound 13-3. The composite NAS score is frequently used to describe the severity of the characteristic pathological changes seen in NAFLD/NASH (Kleiner D E et al. Hepatology. 2005; 41(6):1313-21), including steatosis, lobular inflammation (FIG. 5A), and hepatocellular ballooning (FIG. 5B).

[4] = system: HFD-fed mice; assay: HFD-induced NAFLD mouse model: hepatic triglyceride biochemical assay; assay type: in vivo; settings: HFD-fed mice liver (FIG. 6A)
Text: as §2, §3
(§4) This biochemical change is very important, as ectopic fat accumulation has been linked to lipotoxicity and hepatocellular injury. The extent of liver injury has been characterized by measuring serum levels of two liver enzymes ALT (FIG. 6B) and AST (FIG. 6C) (UMASS Mouse Phenotyping Center Analytical Core, Worcester, Mass.) at the time of euthanasia.

[5] = system: HFD-fed mice; assay: HFD-induced NAFLD mouse model: serum ALT and AST levels; assay type: in vivo
Text: as §2, §3, §4

[6] = system: collagen type I, alpha 1; assay: Hepatic gene expression by quantitative real-time PCR in HFD-fed mice; assay type: in vivo, mouse; settings: HFD-fed mice liver, quantitative real-time PCR (FIG. 5D)
Text: as §2, §3
Therefore, pharmaceutical compositions based on Compound 13-3 and other compounds of the invention will likely provide a viable treatment of NAFLD and especially NASH.

[7] = system: ACOX1; assay: as above; assay type: in vivo, mouse; settings: HFD-fed mice (FIG. 7B)
Text: as §2, §3
(§5) To study the effect of Compound 13-3 on the mediators of fatty acid metabolism, we employed quantitative real-time PCR using commercially available probes to assess mediators of fatty acid metabolism in HFD-fed mice treated with Compound 13-3. As shown in FIGS. 7A-7E, gene expression of some key mediators of fatty acid oxidation such as CPT1a (FIG. 7A), an enzyme that catalyzes the rate-limiting step of fatty acid oxidation in the mitochondrion, of peroxisomal ACOX1 (FIG. 7B) and of FGF21 (FIG. 7C), a recently described hepatokine with pronounced anti-NAFLD and hepatoprotective efficacy (see, Maratos-Flier E Exp Cell Res (2017) 360(1): 2-5; Sonoda J, et al. Horm Mol Biol Clin Investig (2017) 30(2); Xu J, et al. Diabetes (2009) 58(1):250-259; Li H, et al. Diabetes (2012) 61(4): 797-806; Desai B N, et al. Mot Metab (2017) 6(11):1395-1406), were increased by Compound 13-3 treatment in HFD-fed mice. Many of the beneficial metabolic effects are linked to FGF21, and FGF21 itself may further enhance fatty acid oxidation (Xu J, et al. Diabetes (2009) 58(1):250-259; Li H, et al. Diabetes (2012) 61(4):797-806). We, therefore, also measured serum levels of FGF21 using a commercially available ELISA kit.

[8] = system: CPT1a; assay: as above; assay type: in vivo, mouse; settings: HFD-fed mice (FIG. 7A)
Text: as §2, §3, §5

[9] = system: FGF21; assay: as above; assay type: in vivo, mouse; settings: HFD-fed mice (FIG. 7C)
Text: as §2, §3, §5

[10] = system: FGF21; assay: Serum FGF21 ELISA in HFD-fed mice; assay type: in vivo, mouse; settings: ELISA (FIG. 7D)
Text: as §2, §3
To study the effect of Compound 13-3 on the mediators of fatty acid metabolism, we employed quantitative real-time PCR using commercially available probes to assess mediators of fatty acid metabolism in HFD-fed mice treated with Compound 13-3. […] We, therefore, also measured serum levels of FGF21 using a commercially available ELISA kit.

[11] = system: leptin; assay: Serum leptin ELISA in HFD-fed mice; assay type: in vivo, mouse; settings: ELISA (FIG. 7E)
Text: as §2, §3
A suppressive effect of exogenous FGF21 on circulating leptin levels has been previously observed in non-human primates. Accordingly, we also measured serum leptin levels using a commercially available ELISA kit.

[12] = system: CD36; assay: Hepatic gene expression in HFD-fed mice; assay type: in vivo, mouse; settings: HFD-fed mice liver (FIG. 8D)
Text: as §2, §3
(§6) FGF21 has also been linked to the suppression of adipogenesis by suppressing hepatic PPAR-γ, FABP4 and CD36 (Xu J, et al. Diabetes (2009) 58(1):250-259). In view of this, we next assessed the expression of these mediators of adipogenesis in the livers of Compound 13-3-treated, HFD-fed mice.

[13] = system: FABP4; assay: Hepatic gene expression in HFD-fed mice; assay type: in vivo, mouse; settings: HFD-fed mice liver (FIG. 8C)
Text: as §2, §3, §6

[14] = system: PPAR-γ; assay: Hepatic gene expression in HFD-fed mice; assay type: in vivo, mouse; settings: HFD-fed mice (FIG. 8A)
Text: as §2, §3, §6

[15] = system: PPAR-γ; assay: Hepatic protein expression by Western-blotting and densitometry in HFD-fed mice; assay type: in vivo, mouse; settings: Western-blotting and densitometry (FIG. 8B)
Text: as §2, §3, §6

For `CCN(CC)CCNC(=O)c1c(C)[nH]c(/C=C2\C(=O)Nc3ccc(-c4csc(-c5ccccc5)n4)cc32)c1C` [Compound 13-3], the “palmitoleic acid-induced increase of intracellular triglyceride content” value [1] was “markedly suppressed”, the “change in body weight during treatment” value ([2]; HFD-fed C57Bl/6J mice, 5 mg/kg p.o. t.i.w. 3 weeks then 10 mg/kg p.o. t.i.w. 5 weeks (FIG. 2A)) was “not only prevented additional weight gain in the mice on HFD, but also triggered a gradual weight loss” and the food intake ([2]; HFD-fed mice, 5 mg/kg then 10 mg/kg p.o. t.i.w. (FIG. 2C)) was “not linked to decreased food intake”. The water intake ([2]; HFD-fed mice, 5 mg/kg then 10 mg/kg p.o. t.i.w. (FIG. 2D)) was “not linked to decreased food intake or water intake”, the “size of the liver (macroscopic overview at euthanasia)” value ([2]; HFD-fed mice, 5 mg/kg then 10 mg/kg p.o. t.i.w., vs vehicle (FIG. 2E, 3A)) was “markedly decreased the size of the liver; also recorded: essentially comparable to the lean animals” and the “macroscopic appearance of the liver” value ([2]; HFD-fed mice, vs vehicle (pale yellow enlarged liver) (FIG. 2E)) was “healthier, darker brown appearance”. The “fatty metamorphosis / ectopic fat accumulation in the liver” value ([2]; HFD-fed mice, vs vehicle-treated littermates (FIG. 3A-3C)) was “markedly decreased or prevented ectopic fat accumulation”, the liver weight ([2]; HFD-fed mice, vs vehicle-treated littermates, at euthanasia (FIG. 3A, 3B)) was “profoundly decrease liver weight” and the “HFD-induced steatosis and lobular inflammation (NAS components)” value ([3]; HFD-fed mice (FIG. 5A)) was “suppressed”. For the same compound, the “HFD-induced hepatocellular ballooning (NAS component)” value ([3]; HFD-fed mice (FIG. 5B)) was “eliminated”, the “hepatic glycogen depletion (Periodic Acid Schiff staining)” value ([3]; HFD-fed mice, vehicle group depleted in zones 2 & 3 (FIG. 4 bottom row)) was “evidence for hepatic depletion of glycogen was not present” and the “fibrosis (Masson's trichrome staining)” value ([3]; HFD-fed mice, vehicle group showed stage 1 fibrosis (FIG. 4 middle row)) was “did not exhibit any signs of fibrosis”. For the same compound, the “H&E histology: disorganized liver architecture, micro- and macrovesicular steatosis, hepatocyte ballooning and inflammation” value ([3]; HFD-fed mice, vs vehicle (FIG. 4 top row)) was “markedly suppressed”, the “NAFLD Activity Score (NAS)” value ([3]; HFD-fed mice, vs vehicle-treated littermates (FIG. 5C)) was “substantially lower” and the hepatic triglyceride content [4] was “prevented the HFD-induced steatosis”. The “serum ALT” value ([5]; at euthanasia (FIG. 6B)) was “suppresses ALT elevation”, the “serum AST” value ([5]; at euthanasia (FIG. 6C)) was “not affected” and the “serum AST:ALT ratio” value ([5]; vs vehicle (FIG. 6D)) was “largely prevent the drastic decrease”. For the same compound, the “hepatic production (gene expression) of collagen type I, alpha 1” value [6] was “marked decrease”, the ACOX1 gene expression [7] was “increased” and the CPT1a gene expression [8] was “increased”. The FGF21 gene expression [9] was “pronounced elevation”, the “serum FGF21 level” value [10] was “increased” and the “serum leptin level (HFD-induced increase)” value [11] was “significantly decreased”. For the same compound, the CD36 gene expression [12] was “decreased”, the FABP4 gene expression [13] was “decreased” and the “PPAR-γ gene expression in the liver” value [14] was “suppressed”. For the same compound, the “PPAR-γ protein expression in the liver” value [15] was “suppressed”.
